Results on three compounds are retold here after US6214811A, “Acyclovir diester derivatives” (Drug Innovation & Design, Inc., priority 2000, dated 2001).

Structures are written as SMILES.

Data set [1] deals with dermal herpes simplex virus-1 (HSV-1) infection. The data set is described as follows: Dermal HSV-1 infection in guinea pigs, topical treatment (lesion number, lesion area, skin virus titer). It counts as in vivo, guinea pig (Female Hartley outbred). Conditions: for effectiveness in reducing dermal HSV-1 virus infection compared with acyclovir and phosphotriester prodrugs (in words): dermal HSV-1 infection; for lesion number, lesion area and lesion virus titer (summary in words): guinea pigs with dermal HSV-1 infections, compared to vehicle/placebo. The method, then:
The formulation for Prodrug 1 contained 5% EL-620 EMULPHOR (polyoxyethylated castor oil) (Rhone Poluenc), 5% CARBOPOL (Carboxypolymethylene, sodium salt) (B. F. Goodrich), 10% ethanol and 2% by weight Prodrug 1. The balance of the formulation consisted of water.
EL-620 EMULPHOR and water were mixed and ultrasonicated to give a clear emulsion, to which the ethanol was added. The prodrug was then added, and the mixture was ultrasonicated. The sodium carbopol was then added to the emulsion and mixed until to homogeneity.
The placebo was prepared identically to the pharmaceutical compositions except that the prodrugs were omitted.
The pharmaceutical compositions were stored at room temperature.
Female Hartley outbred guinea pigs, 400 to 450 grams, were obtained from Charles River Breeding Labs, Wilmington, Mass. Animals were anesthetized with 25 mg/kg ketamine and 5 mg/kg xylazine SQ. Hair on the dorsum from the shoulders to the rump was removed with electric clippers followed by two 5-10 minute applications of a chemical depilatory. A grid of four areas was demarcated with a pen on both sides of the spine at levels corresponding to mid back and rump.
Undiluted HSV-1 virus stock (0.035 ml) was applied to each different area and introduced through the skin at well-spaced sites at ten activations of a six-pronged spring-loaded vaccination instrument (Sterneedle, Pan Ray Division, Ormont Drug, Englewood, N.J.). The day of inoculation is Day 0. Approximately 250 mg of drug or placebo was applied to the areas according to the dosing regimen on Days 1, 2 and 3. Eight guinea pigs were used during the experiments allowing eight comparisons between each drug and its placebo.
On Day 4 regrown hair on the dorsum of the guinea pigs was removed with one 3-4 minute application of a chemical depilatory. HSV lesions were counted and Polaroid pictures of the animals' backs were taken. The animals were sacrificed using CO2 gas and the full thickness skin of the back was removed by dissection. The square of the skin from each of the four treatment areas was placed into 15 mls of tissue culture medium with 2% FES in an ice bath. The samples were then homogenized in a stomacher Lab Blender 80 (Tekmar Co.). Debris was pelleted by centrifugation and the supernatants collected and frozen at -70° C. until assay for infectivity by plaque formation in VERO cells.
The mean and standard deviation for number of lesions, total lesion area and lesion virus titer were computed. Paired data (drug/vehicle) were evaluated by the Wilcoxon signed-rank test using percent differences between log10 derivatives of mean lesions severity at drug-treated sites compared to the Vehicle-treated sites.
Prodrug 2 was formulated as described in Example 1. One Hartley guinea pig was inoculated with HSV-1 as described in Example 1. The guinea pig was treated with Prodrug 2 according to the protocol used in Example 1 for Prodrug 1.

The next data set deals with pig liver esterase. The data set is described as follows: Incubation with pig liver esterase in phosphate buffered D2O, NMR. It counts as in vitro ADME. The text has this:
This assay is described in Glazier, WO 91/19721 entitled "Phosphorus Prodrugs" and can be used to determine suitable hydroxyl or amino protecting groups which can be cleaved in vivo. The entire teachings of […] are incorporated herein by reference. It is to be understood that there are other in vitro assays known to one of ordinary skill in the art employing esterases, amidases or enzymes capable of cleaving carbonate, carbamate, ester and amide groups which can also be used to determine suitable protecting groups.

In another data set the test system is herpes simplex labialis. Conditions: cited from earlier work.
Setting [2] is: guinea pigs, topical, 2% by weight Prodrug 1 formulation, Days 1, 2 and 3, vs placebo (p<0.01).

Take `COC(=O)CC(OP(=O)(O)OCCOCn1cnc2c(=O)[nH]c(N)nc21)c1ccc(OC(C)=O)cc1` (centres unmarked) [Prodrug 2, sodium 2-((9-guanylyl)methyl)oxy)ethyl-1-(4-acetoxyphenyl)-2-((methoxy)carbonyl)ethyl phosphate]: in data set [1], the “effectiveness in reducing dermal HSV-1 virus infection compared with acyclovir and phosphotriester prodrugs (in words)” value is on record as “more Effective in Reducing Dermal HSV-1 Virus Infection than Acyclovir”; the “lesion number, lesion area and lesion virus titer (summary in words)” value was “dramatic reduction in lesion number, in lesion area and in lesion virus titer”. Further, the “reduction in lesion number, lesion area and skin viral titers (in words)” value in data set [1] (one Hartley guinea pig, formulated as in Example 1, compared with Prodrug 1 in Example 1) was “comparable reduction in lesion number, lesion area and in skin viral titers”.
Turning to `COC(=O)CC(OP(=O)(O)OCCOCn1cnc2c(=O)[nH]c(N)nc21)c1ccc(OC(=O)C(C)(C)C)cc1` (centres unmarked) [Prodrug 1, Sodium 2-((9-Guanylyl)methyl)oxy)ethyl 1-(4-((2,2-dimethylpropionyl)oxy)-phenyl)-2-((methoxy)carbonyl)ethyl phosphate], in data set [1], the “effectiveness in reducing dermal HSV-1 virus infection compared with acyclovir and phosphotriester prodrugs (in words)” value was “more Effective in Reducing Dermal HSV-1 Virus Infection than Acyclovir”; the “lesion number, lesion area and lesion virus titer (summary in words)” value is “dramatic reduction in lesion number, in lesion area and in lesion virus titer”. For the same compound, in data set [1] (setting [2]), the “reduction in lesion area” value amounted to 79%, the “reduction in lesion number” value is on record as 72% and the “reduction in skin viral titers” value amounted to 93%. Moreover, in the data set with pig liver esterase, the “degradation by esterase, products by NMR” value is “degraded to acyclovir monophosphate and p-hydroxycinnamic”.
Take `Nc1nc2c(ncn2COCCO)c(=O)[nH]1` [acyclovir]: the “effectiveness of oral acyclovir in cold sores” value in the data set with herpes simplex labialis (oral) is “only partially effective”. Besides, the “response of cold sores to topical acyclovir” value in the data set on herpes simplex labialis (topical) is “do not respond”.
